Results as given in the kinase profiling compilation of Christmann-Franck et al. (2016).

Key:
Assay in all cases: Caliper, Mobility shift assay off-chip
[1] = target: CAMK1 (human) (UniProt Q14012)
[2] = target: CAMK2B (human) (UniProt Q13554)
[3] = target: CAMK2G (human) (UniProt Q13555)
[4] = target: CDC42BPB (human) (UniProt Q9Y5S2)
[5] = tested on: CHEK2 (human), O96017 [I157T]
[6] = target: CLK3 (human) (UniProt P49761)
[7] = target: CSF1R (human) (UniProt P07333)
[8] = target: CSNK1D (human) (UniProt P48730)
[9] = target: DCLK2 (human) (UniProt Q8N568)
[10] = target: EEF2K (human) (UniProt O00418)
EEF2K (human), sequence (O00418 whole entry, looked up): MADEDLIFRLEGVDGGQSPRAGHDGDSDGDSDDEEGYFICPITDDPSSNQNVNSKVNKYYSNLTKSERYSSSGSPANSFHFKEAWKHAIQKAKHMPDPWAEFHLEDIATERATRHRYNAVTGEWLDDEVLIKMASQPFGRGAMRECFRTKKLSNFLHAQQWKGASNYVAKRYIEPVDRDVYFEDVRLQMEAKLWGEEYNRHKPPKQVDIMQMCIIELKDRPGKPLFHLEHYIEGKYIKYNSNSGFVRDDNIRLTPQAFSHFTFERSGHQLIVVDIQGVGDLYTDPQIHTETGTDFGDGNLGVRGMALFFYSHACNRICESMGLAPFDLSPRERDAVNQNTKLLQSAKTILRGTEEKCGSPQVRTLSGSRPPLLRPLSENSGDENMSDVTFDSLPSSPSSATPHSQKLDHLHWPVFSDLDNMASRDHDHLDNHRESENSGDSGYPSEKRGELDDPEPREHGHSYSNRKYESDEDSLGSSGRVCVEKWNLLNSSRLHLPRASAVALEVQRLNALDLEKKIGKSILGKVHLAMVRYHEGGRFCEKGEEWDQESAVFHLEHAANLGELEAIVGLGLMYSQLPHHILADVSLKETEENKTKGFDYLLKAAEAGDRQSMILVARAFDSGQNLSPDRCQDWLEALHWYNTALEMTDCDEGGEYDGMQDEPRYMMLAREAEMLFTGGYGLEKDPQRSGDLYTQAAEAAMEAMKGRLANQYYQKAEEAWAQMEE

[11] = target: EPHA8 (human) (UniProt P29322)
[12] = target: EPHB1 (human) (UniProt P54762)
[13] = target: EPHB4 (human) (UniProt P54760)
[14] = target: FER (human) (UniProt P16591)
[15] = tested on: FGFR1 (human), P11362 [V561M]
[16] = target: FGFR2 (human) (UniProt P21802)
[17] = tested on: FGFR2 (human), P21802 [N549H]
[18] = target: FGR (human) (UniProt P09769)
[19] = target: GSK3B (human) (UniProt P49841)
[20] = target: IRAK1 (human) (UniProt P51617)
[21] = target: ITK (human) (UniProt Q08881)
[22] = tested on: KIT (human), P10721 [D816H]
KIT (human), P10721 [D816H], sequence (P10721 whole entry D816H, looked up): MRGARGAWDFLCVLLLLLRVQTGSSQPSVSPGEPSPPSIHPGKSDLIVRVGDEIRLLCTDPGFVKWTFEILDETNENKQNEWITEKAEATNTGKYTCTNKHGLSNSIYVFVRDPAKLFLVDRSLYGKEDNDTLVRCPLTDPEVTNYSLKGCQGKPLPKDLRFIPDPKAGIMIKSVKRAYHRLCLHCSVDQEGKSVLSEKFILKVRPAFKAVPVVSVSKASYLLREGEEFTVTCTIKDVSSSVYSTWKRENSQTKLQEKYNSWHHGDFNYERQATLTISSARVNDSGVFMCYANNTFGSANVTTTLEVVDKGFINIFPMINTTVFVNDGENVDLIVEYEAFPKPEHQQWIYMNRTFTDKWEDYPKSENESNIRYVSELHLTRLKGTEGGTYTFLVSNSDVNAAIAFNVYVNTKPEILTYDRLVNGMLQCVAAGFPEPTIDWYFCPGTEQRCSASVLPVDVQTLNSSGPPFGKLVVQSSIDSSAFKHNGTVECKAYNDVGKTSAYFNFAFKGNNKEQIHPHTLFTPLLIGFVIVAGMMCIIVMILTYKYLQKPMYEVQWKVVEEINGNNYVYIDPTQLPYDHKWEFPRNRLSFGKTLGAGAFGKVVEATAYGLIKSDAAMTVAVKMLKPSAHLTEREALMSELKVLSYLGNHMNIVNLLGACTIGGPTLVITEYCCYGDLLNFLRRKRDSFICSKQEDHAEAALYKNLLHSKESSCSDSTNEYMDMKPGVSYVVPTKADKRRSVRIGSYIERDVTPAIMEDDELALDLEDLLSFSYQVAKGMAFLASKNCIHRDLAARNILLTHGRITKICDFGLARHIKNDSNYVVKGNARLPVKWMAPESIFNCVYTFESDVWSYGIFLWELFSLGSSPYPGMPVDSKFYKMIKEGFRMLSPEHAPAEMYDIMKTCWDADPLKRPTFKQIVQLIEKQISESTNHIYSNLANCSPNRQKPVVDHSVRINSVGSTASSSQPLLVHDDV

[23] = tested on: KIT (human), P10721 [D816V]
KIT (human), P10721 [D816V], sequence (P10721 whole entry D816V, looked up): as the sequence (P10721 whole entry D816H, looked up) above, with H816V counted along it

[24] = target: LCK (human) (UniProt P06239)
[25] = target: MAP2K7 (human) (UniProt O14733)
MAP2K7 (human), sequence (O14733 whole entry, looked up): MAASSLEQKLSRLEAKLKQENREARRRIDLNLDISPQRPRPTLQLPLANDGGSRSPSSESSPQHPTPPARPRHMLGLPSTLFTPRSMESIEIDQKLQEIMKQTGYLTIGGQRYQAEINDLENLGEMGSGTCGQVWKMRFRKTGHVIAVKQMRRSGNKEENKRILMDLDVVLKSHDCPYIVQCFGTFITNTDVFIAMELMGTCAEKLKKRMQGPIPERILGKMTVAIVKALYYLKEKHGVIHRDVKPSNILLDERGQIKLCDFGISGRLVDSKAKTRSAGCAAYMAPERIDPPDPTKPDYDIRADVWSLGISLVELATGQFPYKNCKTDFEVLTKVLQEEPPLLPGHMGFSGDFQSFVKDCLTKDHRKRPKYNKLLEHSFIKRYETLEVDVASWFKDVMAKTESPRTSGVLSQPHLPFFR

[26] = target: MAP3K5 (human) (UniProt Q99683)
[27] = target: MERTK (human) (UniProt Q12866)
[28] = target: MINK1 (human) (UniProt Q8N4C8)
[29] = target: NLK (human) (UniProt Q9UBE8)
[30] = target: PDGFRA (human) (UniProt P16234)
PDGFRA (human), sequence (P16234 whole entry, looked up): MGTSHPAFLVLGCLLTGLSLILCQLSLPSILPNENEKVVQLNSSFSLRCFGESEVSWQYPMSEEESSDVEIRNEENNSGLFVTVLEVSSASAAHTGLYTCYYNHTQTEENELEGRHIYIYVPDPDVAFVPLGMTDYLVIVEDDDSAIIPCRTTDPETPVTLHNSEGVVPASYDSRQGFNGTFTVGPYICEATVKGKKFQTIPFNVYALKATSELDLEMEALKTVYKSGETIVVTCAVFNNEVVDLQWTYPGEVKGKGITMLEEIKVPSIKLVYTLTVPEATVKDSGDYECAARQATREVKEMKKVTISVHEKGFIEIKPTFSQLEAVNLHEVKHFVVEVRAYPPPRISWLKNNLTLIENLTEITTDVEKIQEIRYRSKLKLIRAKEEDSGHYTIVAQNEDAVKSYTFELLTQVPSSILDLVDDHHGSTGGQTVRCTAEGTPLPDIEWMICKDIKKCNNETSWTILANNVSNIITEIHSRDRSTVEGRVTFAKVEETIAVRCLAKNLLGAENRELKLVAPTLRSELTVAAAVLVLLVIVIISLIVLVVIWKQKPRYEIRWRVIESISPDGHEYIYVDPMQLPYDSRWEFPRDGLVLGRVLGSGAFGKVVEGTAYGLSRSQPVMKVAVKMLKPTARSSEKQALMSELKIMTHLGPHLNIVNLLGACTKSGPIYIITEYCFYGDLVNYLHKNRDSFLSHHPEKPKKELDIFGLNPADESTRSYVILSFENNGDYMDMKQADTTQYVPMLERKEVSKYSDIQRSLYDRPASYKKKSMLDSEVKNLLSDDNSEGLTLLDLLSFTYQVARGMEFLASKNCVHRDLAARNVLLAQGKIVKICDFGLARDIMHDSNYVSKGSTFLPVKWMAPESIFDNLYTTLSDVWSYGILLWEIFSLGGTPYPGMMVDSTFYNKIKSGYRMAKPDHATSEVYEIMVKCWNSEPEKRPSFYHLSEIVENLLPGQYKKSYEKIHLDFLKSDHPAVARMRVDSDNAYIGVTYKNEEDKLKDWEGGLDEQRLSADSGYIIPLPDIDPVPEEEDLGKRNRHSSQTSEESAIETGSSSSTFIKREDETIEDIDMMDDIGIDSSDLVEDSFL

[31] = tested on: PDGFRA (human), P16234 [V561D]
PDGFRA (human), P16234 [V561D], sequence (P16234 whole entry V561D, looked up): as the sequence (P16234 whole entry, looked up) above, with V561D counted along it

[32] = target: PIM3 (human) (UniProt Q86V86)
[33] = target: PRKCD (human) (UniProt Q05655)
[34] = target: PRKCE (human) (UniProt Q02156)
[35] = target: PRKCQ (human) (UniProt Q04759)
[36] = target: PRKCZ (human) (UniProt Q05513)
[37] = target: PRKX (human) (UniProt P51817)
[38] = target: RPS6KA2 KD1 KD2 (human) (UniProt Q15349)
[39] = target: SGK2 (human) (UniProt Q9HBY8)
[40] = target: STK17A (human) (UniProt Q9UEE5)
[41] = target: WNK2 (human) (UniProt Q9Y3S1)

CDC42BPB (human), sequence (Q9Y5S2 whole entry, looked up): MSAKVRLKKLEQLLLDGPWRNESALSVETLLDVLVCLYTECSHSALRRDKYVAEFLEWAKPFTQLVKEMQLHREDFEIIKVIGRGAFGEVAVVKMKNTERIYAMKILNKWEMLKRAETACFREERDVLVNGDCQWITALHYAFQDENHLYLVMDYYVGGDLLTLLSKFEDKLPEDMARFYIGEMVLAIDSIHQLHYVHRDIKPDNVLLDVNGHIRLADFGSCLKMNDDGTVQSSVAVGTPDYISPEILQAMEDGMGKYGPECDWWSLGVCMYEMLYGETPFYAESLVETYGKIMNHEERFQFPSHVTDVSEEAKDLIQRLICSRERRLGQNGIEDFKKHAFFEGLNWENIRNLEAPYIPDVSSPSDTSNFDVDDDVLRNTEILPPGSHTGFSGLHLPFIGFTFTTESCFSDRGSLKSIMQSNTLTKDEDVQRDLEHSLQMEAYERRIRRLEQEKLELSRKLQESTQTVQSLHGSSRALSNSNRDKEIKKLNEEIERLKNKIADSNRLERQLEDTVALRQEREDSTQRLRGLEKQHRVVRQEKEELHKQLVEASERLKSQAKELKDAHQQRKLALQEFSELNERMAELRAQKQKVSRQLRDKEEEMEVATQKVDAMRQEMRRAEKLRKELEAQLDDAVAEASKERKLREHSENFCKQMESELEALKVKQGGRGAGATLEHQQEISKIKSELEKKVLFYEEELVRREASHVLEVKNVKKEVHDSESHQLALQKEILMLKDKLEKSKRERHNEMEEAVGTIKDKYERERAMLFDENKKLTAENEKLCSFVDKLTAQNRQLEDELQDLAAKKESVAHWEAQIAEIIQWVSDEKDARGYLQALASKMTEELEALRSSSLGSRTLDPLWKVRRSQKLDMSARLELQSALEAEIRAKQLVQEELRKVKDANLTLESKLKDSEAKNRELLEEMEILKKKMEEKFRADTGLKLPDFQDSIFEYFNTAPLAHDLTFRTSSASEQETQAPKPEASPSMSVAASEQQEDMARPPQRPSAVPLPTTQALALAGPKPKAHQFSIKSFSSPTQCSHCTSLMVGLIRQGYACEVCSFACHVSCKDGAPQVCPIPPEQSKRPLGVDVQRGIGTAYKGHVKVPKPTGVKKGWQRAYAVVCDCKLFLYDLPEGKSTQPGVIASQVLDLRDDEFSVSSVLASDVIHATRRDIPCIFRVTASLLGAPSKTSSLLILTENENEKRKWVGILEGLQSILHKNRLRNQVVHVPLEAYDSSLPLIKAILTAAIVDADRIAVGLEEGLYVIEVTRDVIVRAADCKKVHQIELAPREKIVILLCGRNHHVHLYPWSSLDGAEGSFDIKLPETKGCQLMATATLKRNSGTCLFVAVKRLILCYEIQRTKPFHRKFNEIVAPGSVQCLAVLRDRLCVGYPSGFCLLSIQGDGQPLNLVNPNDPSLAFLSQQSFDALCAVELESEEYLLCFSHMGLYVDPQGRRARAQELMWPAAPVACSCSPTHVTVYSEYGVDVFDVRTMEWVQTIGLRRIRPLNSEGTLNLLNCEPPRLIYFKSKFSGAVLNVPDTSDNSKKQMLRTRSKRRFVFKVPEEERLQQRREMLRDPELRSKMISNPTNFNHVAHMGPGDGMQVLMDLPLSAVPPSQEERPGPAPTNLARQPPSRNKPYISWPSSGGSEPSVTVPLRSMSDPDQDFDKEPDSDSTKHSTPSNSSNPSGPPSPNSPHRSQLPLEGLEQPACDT

Compound: O=C(N[C@@H](COc1ccc2[nH]c(=O)[nH]c2c1)c1ccccc1)c1cccn(Cc2ccc(F)c(F)c2)c1=O
- residual activity ([1]; compound 10.0 µM): 96%
- residual activity ([2]; compound 10.0 µM): 105%
- residual activity ([3]; compound 10.0 µM): 97%
- residual activity ([4]; compound 10.0 µM): 101%
- residual activity ([5]; compound 10.0 µM): 90%
- residual activity ([6]; compound 10.0 µM): 115%
- residual activity ([7]; compound 10.0 µM): 107%
- residual activity ([8]; compound 10.0 µM): 110%
- residual activity ([9]; compound 10.0 µM): 121%
- residual activity ([10]; compound 10.0 µM): 98%
- residual activity ([11]; compound 10.0 µM): 107%
- residual activity ([12]; compound 10.0 µM): 104%
- residual activity ([13]; compound 10.0 µM): 102%
- residual activity ([14]; compound 10.0 µM): 98%
- residual activity ([15]; compound 10.0 µM): 103%
- residual activity ([16]; compound 10.0 µM): 92%
- residual activity ([17]; compound 10.0 µM): 106%
- residual activity ([18]; compound 10.0 µM): 100%
- residual activity ([19]; compound 10.0 µM): 92%
- residual activity ([20]; compound 10.0 µM): 100%
- residual activity ([21]; compound 10.0 µM): 108%
- residual activity ([22]; compound 10.0 µM): 97%
- residual activity ([23]; compound 10.0 µM): 111%
- residual activity ([24]; compound 10.0 µM): 108%
- residual activity ([25]; compound 10.0 µM): 95%
- residual activity ([26]; compound 10.0 µM): 99%
- residual activity ([27]; compound 10.0 µM): 95%
- residual activity ([28]; compound 10.0 µM): 113%
- residual activity ([29]; compound 10.0 µM): 100%
- residual activity ([30]; compound 10.0 µM): 108%
- residual activity ([31]; compound 10.0 µM): 112%
- residual activity ([32]; compound 10.0 µM): 97%
- residual activity ([33]; compound 10.0 µM): 105%
- residual activity ([34]; compound 10.0 µM): 96%
- residual activity ([35]; compound 10.0 µM): 108%
- residual activity ([36]; compound 10.0 µM): 106%
- residual activity ([37]; compound 10.0 µM): 107%
- residual activity ([38]; compound 10.0 µM): 102%
- residual activity ([39]; compound 10.0 µM): 97%
- residual activity ([40]; compound 10.0 µM): 116%
- residual activity ([41]; compound 10.0 µM): 104%

Compound: C[C@@H](Nc1nc2c(C#CC3CC3)c[nH]c(=O)c2c2cc(-c3cn[nH]c3)ccc12)C(C)(C)C
- residual activity ([1]; compound 1.0 µM): 63%
- residual activity ([2]; compound 1.0 µM): 78%
- residual activity ([3]; compound 1.0 µM): 13%
- residual activity ([4]; compound 1.0 µM): 99%
- residual activity ([5]; compound 1.0 µM): 9%
- residual activity ([6]; compound 1.0 µM): 108%
- residual activity ([7]; compound 1.0 µM): 10%
- residual activity ([8]; compound 1.0 µM): 105%
- residual activity ([9]; compound 1.0 µM): 112%
- residual activity ([10]; compound 1.0 µM): 115%
- residual activity ([11]; compound 1.0 µM): 108%
- residual activity ([12]; compound 1.0 µM): 104%
- residual activity ([13]; compound 1.0 µM): 137%
- residual activity ([14]; compound 1.0 µM): 6%
- residual activity ([15]; compound 1.0 µM): 73%
- residual activity ([16]; compound 1.0 µM): 56%
- residual activity ([17]; compound 1.0 µM): 23%
- residual activity ([18]; compound 1.0 µM): 57%
- residual activity ([19]; compound 1.0 µM): 82%
- residual activity ([20]; compound 1.0 µM): 102%
- residual activity ([21]; compound 1.0 µM): 113%
- residual activity ([22]; compound 1.0 µM): 9%
- residual activity ([23]; compound 1.0 µM): 93%
- residual activity ([24]; compound 1.0 µM): 58%
- residual activity ([25]; compound 1.0 µM): 107%
- residual activity ([26]; compound 1.0 µM): 104%
- residual activity ([27]; compound 1.0 µM): 8%
- residual activity ([28]; compound 1.0 µM): 117%
- residual activity ([29]; compound 1.0 µM): 85%
- residual activity ([30]; compound 1.0 µM): 74%
- residual activity ([31]; compound 1.0 µM): 1%
- residual activity ([32]; compound 1.0 µM): 96%
- residual activity ([33]; compound 1.0 µM): 79%
- residual activity ([34]; compound 1.0 µM): 106%
- residual activity ([35]; compound 1.0 µM): 78%
- residual activity ([36]; compound 1.0 µM): 108%
- residual activity ([37]; compound 1.0 µM): 103%
- residual activity ([38]; compound 1.0 µM): 7%
- residual activity ([39]; compound 1.0 µM): 86%
- residual activity ([40]; compound 1.0 µM): 62%
- residual activity ([41]; compound 1.0 µM): 98%
